Source: PubChem BioAssay AID1845194 (Molecular Pharmacology Branch, DTP, NCI, 2023)

Tested on: 287954-098-R-J1 tumor spheroid viability
Experiment: Anticancer human tumor 287954-098-R-J1 patient-derived Ewing sarcoma cell line growth inhibition
Conditions: spheroids with HUVEC and MSC; for IC50: curve of first compound; for viability, T/C: stronger effect = lower value
Outline: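 Complex spheroids of malignant cells with endothelial cells and mesenchymal stem cells; agents alone or combined, from near clinical Cmax (or 10 microM if unknown) down in half-log steps, 0.25% DMSO final.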

[1] = second compound 1 µM, first compound 0.00949 µM
[2] = second compound 1 µM, first compound 0.03 µM
[3] = second compound 1 µM, first compound 0.0949 µM
[4] = second compound 1 µM, first compound 0.3 µM
[5] = second compound 1 µM, first compound 0.949 µM
[6] = second compound 1 µM, first compound 3 µM
[7] = second compound 3.16 µM, first compound 0.00949 µM
[8] = second compound 3.16 µM, first compound 0.03 µM
[9] = second compound 3.16 µM, first compound 0.0949 µM
[10] = second compound 3.16 µM, first compound 0.3 µM
[11] = second compound 3.16 µM, first compound 0.949 µM
[12] = second compound 3.16 µM, first compound 3 µM
[13] = second compound 10 µM, first compound 0.00949 µM
[14] = second compound 10 µM, first compound 0.03 µM
[15] = second compound 10 µM, first compound 0.0949 µM
[16] = second compound 10 µM, first compound 0.3 µM
[17] = second compound 10 µM, first compound 0.949 µM
[18] = second compound 10 µM, first compound 3 µM
[19] = second compound 31.6 µM, first compound 0.00949 µM
[20] = second compound 31.6 µM, first compound 0.03 µM
[21] = second compound 31.6 µM, first compound 0.0949 µM
[22] = second compound 31.6 µM, first compound 0.3 µM
[23] = second compound 31.6 µM, first compound 0.949 µM
[24] = second compound 31.6 µM, first compound 3 µM
[25] = second compound 100 µM, first compound 0.00949 µM
[26] = second compound 100 µM, first compound 0.03 µM
[27] = second compound 100 µM, first compound 0.0949 µM
[28] = second compound 100 µM, first compound 0.3 µM
[29] = second compound 100 µM, first compound 0.949 µM
[30] = second compound 100 µM, first compound 3 µM
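Also: spheroids exposed to compound for 7 days before viability readout.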
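For viability, T/C in this document: luminescent signal taken as surrogate of viable cell content; 100% = DMSO vehicle control viability and lower means growth inhibition.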

SMILES | IC50 (second compound 1 µM) | IC50 (second compound 3.16 µM) | IC50 (second compound 10 µM) | IC50 (second compound 31.6 µM) | IC50 (second compound 100 µM) | viability, T/C [1] | viability, T/C [2] | viability, T/C [3] | viability, T/C [4] | viability, T/C [5] | viability, T/C [6] | viability, T/C [7] | viability, T/C [8] | viability, T/C [9] | viability, T/C [10] | viability, T/C [11] | viability, T/C [12] | viability, T/C [13] | viability, T/C [14] | viability, T/C [15] | also measured
CNCc1ccc(-c2cc(-c3nc(-c4ccc(S(=O)(=O)C(C)C)cc4)cnc3N)on2)cc1 + Cn1nnc2c(C(N)=O)ncn2c1=O | 545 nM | 555 nM | 551 nM | 398 nM | 170 nM | 98.6% | 103% | 110% | 103% | 0.19% | 0.11% | 105% | 106% | 113% | 107% | 0.19% | 0.1% | 102% | 110% | 106% | viability, T/C [16]: 105%; viability, T/C [17]: 0.16%; viability, T/C [18]: 0.09%; viability, T/C [19]: 104%; viability, T/C [20]: 106%; viability, T/C [21]: 121%; viability, T/C [22]: 66.3%; viability, T/C [23]: 0.13%; viability, T/C [24]: 0.1%; viability, T/C [25]: 97.5%; viability, T/C [26]: 100%; viability, T/C [27]: 103%; viability, T/C [28]: 1.71%; viability, T/C [29]: 0.14%; viability, T/C [30]: 0.16%
Cc1sc2c(c1C)C(c1ccc(Cl)cc1)=NC(CC(=O)Nc1ccc(O)cc1)c1nnc(C)n1-2 (stereo not given) + Cn1nnc2c(C(N)=O)ncn2c1=O | 954 nM | 624 nM | 1110 nM | 624 nM | 181 nM | 112% | 117% | 111% | 101% | 50.2% | 4.34% | 110% | 113% | 123% | 91.9% | 25.9% | 2.69% | 113% | 122% | 122% | viability, T/C [16]: 100%; viability, T/C [17]: 58.3%; viability, T/C [18]: 2.44%; viability, T/C [19]: 114%; viability, T/C [20]: 130%; viability, T/C [21]: 121%; viability, T/C [22]: 113%; viability, T/C [23]: 13.7%; viability, T/C [24]: 1.92%; viability, T/C [25]: 105%; viability, T/C [26]: 115%; viability, T/C [27]: 98.2%; viability, T/C [28]: 12.2%; viability, T/C [29]: 2.46%; viability, T/C [30]: 2.14%
